Data from US11331369B2, “Endoparasitic depsipeptides” (Zoetis Services LLC, priority 2017, dated 2022).

Test system: microfilariae of Dirofilaria immitis
Test: Dirofilaria immitis, Microfilaria (DiMF) In vitro Assay
Assay type: cell-based
Details: 72 h, read-out: DiMF Minimum Effective Dose (MED), approximately 72 hours incubation, microfilariae assessed for survival or paralysis

Row | Structure (SMILES) | minimal effective concentration
1 | CC(C)C[C@H]1C(=O)O[C@H](Cc2ccc(Cn3cc4c(n3)CN(C)C4)cc2)C(=O)N(C)[C@@H](CC(C)C)C(=O)O[C@H](C)C(=O)N(C)[C@@H](CC(C)C)C(=O)O[C@H](Cc2ccccc2)C(=O)N(C)[C@@H](CC(C)C)C(=O)O[C@H](C)C(=O)N1C [Example 10-32, (3S,6R,9S,12R,15S,18R,21S,24R)-6-benzyl-3,9,15,21-tetraisobutyl-4,10,12,16,22,24-hexamethyl-18-(4-((5-methyl-5,6-dihydropyrrolo[3,4-c]pyrazol-2(4H)-yl)methyl)benzyl)-1,7,13,19-tetraoxa-4,10,16,22-tetraazacyclotetracosan-2,5,8,11,14,17,20,23-octaone] | 0.01 to 0.1 µM
2 | CC(C)C[C@H]1C(=O)O[C@H](Cc2ccc(Cn3ccc(C(F)(F)F)n3)cc2)C(=O)N(C)[C@@H](CC(C)C)C(=O)O[C@H](C)C(=O)N(C)[C@@H](CC(C)C)C(=O)O[C@H](Cc2ccccc2)C(=O)N(C)[C@@H](CC(C)C)C(=O)O[C@H](C)C(=O)N1C [Example 2-58, (3S,6R,9S,12R,15S,18R,21S,24R)-6-benzyl-3,9,15,21-tetraisobutyl-4,10,12,16,22,24-hexamethyl-18-(4-((3-(trifluoromethyl)-1H-pyrazol-1-yl)methyl)benzyl)-1,7,13,19-tetraoxa-4,10,16,22-tetraazacyclotetracosan-2,5,8,11,14,17,20,23-octaone] | 0.01 to 0.1 µM
3 | CC(C)C[C@H]1C(=O)O[C@H](Cc2ccc(CN3CCOc4cccnc43)cc2)C(=O)N(C)[C@@H](CC(C)C)C(=O)O[C@H](C)C(=O)N(C)[C@@H](CC(C)C)C(=O)O[C@H](Cc2ccccc2)C(=O)N(C)[C@@H](CC(C)C)C(=O)O[C@H](C)C(=O)N1C [Example 10-37, (3S,6R,9S,12R,15S,18R,21S,24R)-6-benzyl-18-[[4-(2,3-dihydropyrido[3,2-b][1,4]oxazin-4-ylmethyl)phenyl]methyl]-3,9,15,21-tetraisobutyl-4,10,12,16,22,24-hexamethyl-1,7,13,19-tetraoxa-4, 10,16,22-tetrazacyclotetracosane-2,5,8,11,14,17,20,23-octaone] | 0.001 to 0.01 µM
4 | CC(C)C[C@H]1C(=O)O[C@H](Cc2ccc(Cn3cc4ccccc4n3)cc2)C(=O)N(C)[C@@H](CC(C)C)C(=O)O[C@H](C)C(=O)N(C)[C@@H](CC(C)C)C(=O)O[C@H](Cc2ccc(Cn3cc4ccccc4n3)cc2)C(=O)N(C)[C@@H](CC(C)C)C(=O)O[C@H](C)C(=O)N1C [Example 9-35, (3S,6R,9S,12R,15S,18R,21S,24R)-6,18-bis(4-((2H-indazol-2-yl)methyl)benzyl)-3,9,15,21-tetraisobutyl-4,10,12,16,22,24-hexamethyl-1,7,13,19-tetraoxa-4,10,16,22-tetraazacyclotetracosan-2,5,8,11,14,17,20,23-octaone] | 0.01 to 0.1 µM
5 | CC(C)C[C@H]1C(=O)O[C@H](Cc2cccc(Cn3cccn3)c2)C(=O)N(C)[C@@H](CC(C)C)C(=O)O[C@H](C)C(=O)N(C)[C@@H](CC(C)C)C(=O)O[C@H](Cc2cccc(Cn3cccn3)c2)C(=O)N(C)[C@@H](CC(C)C)C(=O)O[C@H](C)C(=O)N1C [Example 4-1, (3S,6R,9S,12R,15S,18R,21S,24R)-6,18-bis(3-((1H-pyrazol-1-yl)methyl)benzyl)-3,9,15,21-tetraisobutyl-4,10,12,16,22,24-hexamethyl-1,7,13,19-tetraoxa-4,10,16,22-tetraazacyclotetracosan-2,5,8,11,14,17,20,23-octaone] | 0.001 to 0.01 µM
6 | CC(C)C[C@H]1C(=O)O[C@H](Cc2ccc(Cn3cc(S(=O)(=O)N4CCOCC4)cn3)cc2)C(=O)N(C)[C@@H](CC(C)C)C(=O)O[C@H](C)C(=O)N(C)[C@@H](CC(C)C)C(=O)O[C@H](Cc2ccccc2)C(=O)N(C)[C@@H](CC(C)C)C(=O)O[C@H](C)C(=O)N1C [Example 2-23, (3S,6R,9S,12R,15S,18R,21S,24R)-6-benzyl-3,9,15,21-tetraisobutyl-4,10,12,16,22,24-hexamethyl-18-(4-((4-(morpholinosulfonyl)-1H-pyrazol-1-yl)methyl)benzyl)-1,7,13,19-tetraoxa-4,10,16,22-tetraazacyclotetracosan-2,5,8,11,14,17,20,23-octaone] | 0.01 to 0.1 µM
7 | CC(C)C[C@H]1C(=O)O[C@H](Cc2ccc(CN3CCSCC3)cc2)C(=O)N(C)[C@@H](CC(C)C)C(=O)O[C@H](C)C(=O)N(C)[C@@H](CC(C)C)C(=O)O[C@H](Cc2ccc(CN3CCSCC3)cc2)C(=O)N(C)[C@@H](CC(C)C)C(=O)O[C@H](C)C(=O)N1C [Example 9-2, (3S,6R,9S,12R,15S,18R,21S,24R)-3,9,15,21-tetraisobutyl-4,6,10,16,18,22-hexamethyl-12,24-bis(4-(thiomorpholinomethyl)benzyl)-1,7,13,19-tetraoxa-4,10,16,22-tetraazacyclotetracosan-2,5,8,11,14,17,20,23-octaone] | 0.01 to 0.1 µM
8 | CC(C)C[C@H]1C(=O)O[C@H](Cc2ccc(Cn3ncc4ccccc43)cc2)C(=O)N(C)[C@@H](CC(C)C)C(=O)O[C@H](C)C(=O)N(C)[C@@H](CC(C)C)C(=O)O[C@H](Cc2ccccc2)C(=O)N(C)[C@@H](CC(C)C)C(=O)O[C@H](C)C(=O)N1C [Example 10-26, (3S,6R,9S,12R,15S,18R,21S,24R)-6-(4-((1H-indazol-1-yl)methyl)benzyl)-18-benzyl-3,9,15,21-tetraisobutyl-4,10,12,16,22,24-hexamethyl-1,7,13,19-tetraoxa-4,10,16,22-tetraazacyclotetracosan-2,5,8,11,14,17,20,23-octaone] | 0.01 to 0.1 µM
9 | CC(C)C[C@H]1C(=O)O[C@H](Cc2ccc(Cn3cc(-c4ccccn4)cn3)cc2)C(=O)N(C)[C@@H](CC(C)C)C(=O)O[C@H](C)C(=O)N(C)[C@@H](CC(C)C)C(=O)O[C@H](Cc2ccccc2)C(=O)N(C)[C@@H](CC(C)C)C(=O)O[C@H](C)C(=O)N1C [Example 2-47, (3S,6R,9S,12R,15S,18R,21S,24R)-6-benzyl-3,9,15,21-tetraisobutyl-4,10,12,16,22,24-hexamethyl-18-(4-((4-(pyridin-2-yl)-1H-pyrazol-1-yl)methyl)benzyl)-1,7,13,19-tetraoxa-4,10, 16,22-tetraazacyclotetracosan-2,5,8,11,14,17,20,23-octaone] | 0.001 to 0.01 µM
10 | CC(=O)c1cnn(Cc2ccc(C[C@H]3OC(=O)[C@H](CC(C)C)N(C)C(=O)[C@@H](C)OC(=O)[C@H](CC(C)C)N(C)C(=O)[C@@H](Cc4ccccc4)OC(=O)[C@H](CC(C)C)N(C)C(=O)[C@@H](C)OC(=O)[C@H](CC(C)C)N(C)C3=O)cc2)c1 [Example 2-13, (3S,6R,9S,12R,15S,18R,21S,24R)-6-(4-((4-acetyl-1H-pyrazol-1-yl)methyl)benzyl)-18-benzyl-3,9,15,21-tetraisobutyl-4,10,12,16,22,24-hexamethyl-1,7,13,19-tetraoxa-4,10,16,22-tetraazacyclotetracosan-2,5,8,11,14,17,20,23-octaone] | 0.01 to 0.1 µM
11 | Cc1cnn(Cc2ccc(C[C@H]3OC(=O)[C@H](CC(C)C)N(C)C(=O)[C@@H](C)OC(=O)[C@H](CC(C)C)N(C)C(=O)[C@@H](Cc4ccc(Cn5cc(C(F)(F)F)cn5)cc4)OC(=O)[C@H](CC(C)C)N(C)C(=O)[C@@H](C)OC(=O)[C@H](CC(C)C)N(C)C3=O)cc2)c1 [Example 1a-30, (3S,6R,9S,12R,15S,18R,21S,24R)-3,9,15,21-tetraisobutyl-4,6,10,16,18,22-hexamethyl-12-(4-((4-methyl-1H-pyrazol-1-yl)methyl)benzyl)-24-(4-((4-(trifluoromethyl)-1H-pyrazol-1-yl)methyl)benzyl)-1,7,13,19-tetraoxa-4,10,16,22-tetraazacyclotetracosan-2,5,8,11,14,17,20,23-octaone] | 0.01 to 0.1 µM
12 | CC(C)C[C@H]1C(=O)O[C@H](Cc2ccc(Cn3cnnn3)cc2)C(=O)N(C)[C@@H](CC(C)C)C(=O)O[C@H](C)C(=O)N(C)[C@@H](CC(C)C)C(=O)O[C@H](Cc2ccc(Cn3cnnn3)cc2)C(=O)N(C)[C@@H](CC(C)C)C(=O)O[C@H](C)C(=O)N1C [Example 9-18, (3S,6R,9S,12R,15S,18R,21S,24R)-6,18-bis(4-((1H-tetrazol-1-yl)methyl)benzyl)-3,9,15,21-tetraisobutyl-4,10,12,16,22,24-hexamethyl-1,7,13,19-tetraoxa-4,10,16,22-tetraazacyclotetracosan-2,5,8,11,14,17,20,23-octaone] | 0.01 to 0.1 µM
13 | CCc1nccn1Cc1ccc(C[C@H]2OC(=O)[C@H](CC(C)C)N(C)C(=O)[C@@H](C)OC(=O)[C@H](CC(C)C)N(C)C(=O)[C@@H](Cc3ccc(Cn4ccnc4CC)cc3)OC(=O)[C@H](CC(C)C)N(C)C(=O)[C@@H](C)OC(=O)[C@H](CC(C)C)N(C)C2=O)cc1 [Example 6-4, (3S,6R,9S,12R,15S,18R,21S,24R)-6,18-bis[[4-[(2-ethylimidazol-1-yl)methyl]phenyl]methyl]-3,9,15,21-tetraisobutyl-4,10,12,16,22,24-hexamethyl-1,7,13,19-tetraoxa-4,10,16,22-tetrazacyclotetracosane-2,5,8,11,14,17,20,23-octaone] | 0.01 to 0.1 µM
14 | CC(C)C[C@H]1C(=O)O[C@H](Cc2ccc(Cn3cc(C(F)(F)F)cn3)cc2)C(=O)N(C)[C@@H](CC(C)C)C(=O)O[C@H](C)C(=O)N(C)[C@@H](CC(C)C)C(=O)O[C@H](Cc2ccc(Cn3cc(C(F)(F)F)cn3)cc2)C(=O)N(C)[C@@H](CC(C)C)C(=O)O[C@H](C)C(=O)N1C [Example 1b-34, (3S,6R,9S,12R,15S,18R,21S,24R)-3,9,15,21-tetraisobutyl-4,6,10,16,18,22-hexamethyl-12,24-bis(4-((4-(trifluoromethyl)-1H-pyrazol-1-yl)methyl)benzyl)-1,7,13,19-tetraoxa-4,10,16,22-tetraazacyclotetracosan-2,5,8,11,14,17,20,23-octaone] | 0.01 to 0.1 µM
15 | CC(C)C[C@H]1C(=O)O[C@H](Cc2ccc(Cn3cc(C#CC4CC4)cn3)cc2)C(=O)N(C)[C@@H](CC(C)C)C(=O)O[C@H](C)C(=O)N(C)[C@@H](CC(C)C)C(=O)O[C@H](Cc2ccccc2)C(=O)N(C)[C@@H](CC(C)C)C(=O)O[C@H](C)C(=O)N1C [Example 2-75, (3S,6R,9S,12R,15S,18R,21S,24R)-6-benzyl-18-(4-((4-(cyclopropylethynyl)-1H-pyrazol-1-yl)methyl)benzyl)-3,9,15,21-tetraisobutyl-4,10,12,16,22,24-hexamethyl-1,7,13,19-tetraoxa-4,10,16,22-tetraazacyclotetracosan-2,5,8,11,14,17,20,23-octaone] | 0.001 to 0.01 µM
